Measured values taken from US7781393B2, “Methods for inhibiting tumor cell growth” (Dana-Farber Cancer Institute, Inc., priority 2004, dated 2010).

Key:
[1] = tested on: MM1S-LucNeo cells; assay: Orthotopic mouse model of multiple myeloma, bioluminescence imaging; format: in vivo; settings: 50 mg/kg PO BID, after 8 days of treatment, p=0.58
Method: MM1S-LucNeo cells were created by transducing MM1S cells with a retrovirus encoding the firefly luciferase coding region fused to neomycin phosphotransferase (pMMP-LucNeo). Transduced cells were selected by growth in medium (RPMI, 10% FBS, penicillin/streptomycin) containing G418 at an effective concentration of 1 mg/ml.
NOD-SCID mice (Jackson Laboratory) were sublethally irradiated with 300 rads from a ^137CS source. Three hours after irradiation, a total of 5×10^6 MM1S-LucNeo cells in mid-logarithmic growth phase were injected via tail vein into each mouse in a volume of 300 μL of PBS. Mice were maintained under sterile conditions.
Bioluminescence imaging was performed with a Xenogen In Vivo Imaging System (IVIS 100). Mice were anesthetized by IP injection of ketamine 150 mg/kg and xylazine 12 mg/kg, and simultaneously D-luciferin 50 mg/kg was administered by IP injection. Imaging was performed 15 minutes after D-luciferin injection with a setting of 2 minutes, and a bin setting of 2. Mice were allowed to recover under isothermic conditions. Mice were imaged weekly beginning 2 weeks after tumor inoculation. Mice with increasing tumor burden were divided into 2 statistically equivalent cohorts, and treatment was started 4 weeks after tumor inoculation. […]

[2] = tested on: BM stromal cells (BMSCs); assay: Viability of bone marrow stromal cells (MTT); format: cell-based, human; settings: 0.5 μM
Method: Primary MM patient samples were freshly isolated from bone marrow aspirates from patients undergoing diagnostic or restaging bone marrow aspirates under an IRB-approved protocol. MM cells were purified using custom-made RosetteSep cocktail of monoclonal antibodies (mAb's) (StemCell Technologies Inc, Vancouver, Canada) for negative selection of CD138^+ MM cells. The CD138^− fraction of the MM cell purification process was cultured in 20% FBS-supplemented media for isolation of the adherent bone marrow stromal cells. Peripheral blood B cells were isolated by ficoll-density centrifugation of peripheral blood samples from MM patients. […] […] At the end of each treatment, cells were incubated with 1 mg/ml MTT for 4 hours at 37° C.; a mixture of isopropanol and 1N HCl (23:2, v/v) was then added under vigorous pipetting to dissolve the formazan crystals. Dye absorbance (A) in viable cells was measured at 570 nm, with 630 nm as a reference wavelength. Cell survival was estimated as a percentage of the value of untreated controls. All experiments were repeated at least three times, and each experimental condition was repeated at least in quadruplicate wells in each experiment.

[3] = tested on: peripheral blood B-cells; assay: Viability of peripheral blood B-cells; format: cell-based, human; settings: 0.5 μM
Method: Primary MM patient samples were freshly isolated from bone marrow aspirates from patients undergoing diagnostic or restaging bone marrow aspirates under an IRB-approved protocol. MM cells were purified using custom-made RosetteSep cocktail of monoclonal antibodies (mAb's) (StemCell Technologies Inc, Vancouver, Canada) for negative selection of CD138^+ MM cells. The CD138^− fraction of the MM cell purification process was cultured in 20% FBS-supplemented media for isolation of the adherent bone marrow stromal cells. Peripheral blood B cells were isolated by ficoll-density centrifugation of peripheral blood samples from MM patients.
To assess whether MM cells are more susceptible to inhibition of IGF-1R signaling, than normal cells in their immediate environment, primary MM cells, normal bone marrow stromal cells and peripheral blood B-cells, were exposed to 0.5 μM NVP-AEW541.

Nc1ncnc2c1c(-c1cccc(OCc3ccccc3)c1)cn2[C@H]1C[C@@H](CN2CCC2)C1 [NVP-AEW541] was tested, and the body weight [1] was “no difference in body weight”, the “viability of bone marrow stromal cells” value [2] was “no effect on the viability” and the “viability of peripheral blood B-cells” value [3] was “no effect on the viability”.
